According to US9492434B2, “Combination compositions and methods of treatment” (University of Florida Research Foundation, Inc., priority 2011, dated 2016):

Assays:
Assay type in all cases: cell-based, human
[1] = tested on: E-Cadherin-containing complexes; test: GST pulldown (glutathione-agarose) of E-Cadherin complexes from 231/E-Cad-GST cells, immunoblot; conditions: for stabilization of E-Cadherin/γ-Catenin complexes relative to vehicle: 10 nM Largazole, 1 μM SAHA, or 100 nM TSA (FIG. 6C)
Method: Cells were subjected to hypotonic lysis and membrane fractions were isolated by centrifugation for one hour at 100,000×g. The pellet was solubilized by sonication in buffer containing 2% Triton X100, 20 mM HEPES (pH 7.4), 1 mM EDTA, 1 mM EGTA, 0.1% β-mercaptoethanol, 5% glycerol, 10 nM microcystin, 200 μM Na3VO4, and 40 mM Na2H2P2O7. The membrane extract was centrifuged for one hour at 100,000×g, and the supernatant was used for E-Cadherin purifications. Complexes containing E-Cad-GST were isolated using glutathione-agarose (G4510; Sigma-Aldrich, St. Louis, Mo.), washed, and either eluted with 5 mM glutathione or eluted by boiling in SDS-PAGE sample buffer. In sequential purifications involving γ-Catenin-His6 and E-Cad-GST proteins expressed in the same cells, TALON (635503; Clontech Laboratories, Inc., Mountain View, Calif.) resin purifications were performed as described previously (Chytil et al 2004), and the 400 mM imidazole eluents were diluted ten-fold and purified using glutathione-agarose, followed by elution with 5 mM glutathione. […] Immunoprecipitations were performed as described previously (Law et al 2002) using 2 mg of total protein extract per sample and 4 μg of antibody per sample. Immunoprecipitates prepared using antibodies to E-Cadherin (610182; BD Biosciences) or GST (sc-459; Santa Cruz Biotechnology Inc.) were isolated with 35 μl per sample Protein G-Sepharose (10-1242; Invitrogen), washed, and eluted by boiling in SDS-PAGE sample buffer.
FIG. 6. […] A. Crude lysates (left panel) or GST pulldowns (right panel) from 231/E-Cad-GST cells treated for 72 hrs with 100 nM Dexamethasone, 10 nM Largazole, or Dex.+Larg. were analyzed by immunoblot. B. 231/E-Cad-GST cells were infected with an adenovirus encoding His6-tagged γ-Catenin and 231/neo cells were infected with an adenovirus encoding GFP and incubated 24 hours. The cells were then treated as indicated for 72 hrs with or without Dex.+Larg. γ-Catenin- and E-Cadherin containing complexes were isolated by sequential TALON and glutathione-agarose chromatography and analyzed by immunoblot. C. 231/E-Cad-GST cells were treated with 10 nM Largazole, 1 μM SAHA, or 100 nM TSA for 72 hrs and extracts were subjected to glutathione-agarose chromatography and the affinity purified material was analyzed by immunoblot.

CDCP1 = CDCP1 immunoblot analysis, MDA-MB-231 cells; conditions: 72 hr, Dexamethasone 100 nM, Largazole 10 nM (FIG. 5A, 5C)
BT549 cells = conditions: 72 hrs; 100 nM Dexamethasone, 10 nM Largazole, or both (FIG. 3D)
[2] = tested on: 231/E-GFP cell line (MDA-MB-231 cells stably expressing E-Cad-GFP); test: Fluorescence microscopy of E-Cad-GFP localization in 231/E-Cad-GFP cells; conditions: 72 hrs, 100 nM Dexamethasone, 10 nM Largazole, or both (FIG. 3A)
Method: Fluorescence and immunofluorescence microscopy were performed essentially as described previously (Corsino et al 2008) employing antibodies to E-Cadherin (610182; BD Bioscience) and γ-Catenin (138500; Invitrogen, Carlsbad, Calif.).
The 231/E-GFP cell line was treated with a series of small molecule signaling agonists and antagonists to identify compounds that modulate E-Cadherin localization within the cell. […] Changes in E-Cadherin localization partially overlapped with changes in γ-Catenin localization. In vitro invasion assays were performed to determine the respective effects of E-Cadherin expression and Dex.+Larg. treatment on the invasiveness of MDA-MB-231 cells.
FIG. 3. Dexamethasone and Largazole cooperate to suppress invasion and to restore E-Cadherin localization to the cell periphery. A. Fluorescence (E-Cad-GFP) or immunofluorescence microscopy (γ-Catenin (γ-Cat.)) of 231/E-Cad-GFP cells treated for 72 hrs with Vehicle (Control), 100 nM Dexamethasone, 10 nM Largazole, or 100 nM Dexamethasone+10 nM Largazole (Dex.+Larg.). […] BT549 cells were treated and analyzed by immunofluorescence microscopy as in FIG. 3A. D. BT549 cells were treated as described in FIG. 3A and analyzed for invasion as outlined in FIG. 3B.

Row | SMILES | stabilization of E-Cadherin/γ-Catenin complexes relative to vehicle ([1]; 231/E-Cad-GST cells, 72 hrs) | γ-Catenin binding to E-Cadherin ([1]; 231/E-Cad-GST cells, 72 hrs, 100 nM Dexamethasone or 10 nM Largazole (FIG. 6A)) | levels of γ-Catenin ([1]; 231/E-Cad-GST crude lysates, 72 hrs, 10 nM Largazole (FIG. 6A)) | E-Cadherin association with β-Catenin ([1]; Largazole treatment) | CDCP1 cleavage (cleaved form cCDCP1, p80) (CDCP1) | invasion of BT549 cells in vitro (BT549 cells) | E-Cadherin localization to the cell-cell periphery [2]
1 | CCCCCCCC(=O)SCC/C=C/[C@@H]1CC(=O)NCc2nc(cs2)C2=N[C@@](C)(CS2)C(=O)N[C@@H](C(C)C)C(=O)O1 [Largazole, largazole] | stabilized E-Cadherin/γ-Catenin complexes to similar extents relative to vehicle treatment | preferentially increased γ-Catenin binding to E-Cadherin relative to β-Catenin binding | without changing the levels of γ-Catenin | little effect on E-Cadherin association with β-Catenin | did not influence CDCP1 cleavage | suppressed the invasion of BT549 cells in vitro | modestly increased E-Cadherin localization to the cell-cell periphery
2 | O=C(CCCCCCC(=O)Nc1ccccc1)NO [SAHA, suberoylanilide hydroxamic acid, reference compound] | stabilized E-Cadherin/γ-Catenin complexes to similar extents relative to vehicle treatment |  |  |  |  |  | 
3 | CC(/C=C/C(=O)NO)=C\[C@@H](C)C(=O)c1ccc(N(C)C)cc1 [TSA, Trichostatin A, reference compound] | stabilized E-Cadherin/γ-Catenin complexes to similar extents relative to vehicle treatment |  |  |  |  |  | 
